Each structure is given as a SMILES string. A value given as a limit tells only on which side of the number the result lay.

One assay has as its target T1, PI3K-alpha (Homo sapiens, UniProt P42336).
T1 construct: purchased Upstate; Millipore 14-602
The assay can be described thus: HTRF PI3K biochemical assay, alpha isoform. Particulars: ratio PI3K-alpha IC50 value / PI3K-delta IC50 value.

Another assay deals with T2, PI3K-delta (Homo sapiens, UniProt O00329).
T2 construct: purchased Upstate; Millipore 14-604
T2 sequence (O00329 whole entry): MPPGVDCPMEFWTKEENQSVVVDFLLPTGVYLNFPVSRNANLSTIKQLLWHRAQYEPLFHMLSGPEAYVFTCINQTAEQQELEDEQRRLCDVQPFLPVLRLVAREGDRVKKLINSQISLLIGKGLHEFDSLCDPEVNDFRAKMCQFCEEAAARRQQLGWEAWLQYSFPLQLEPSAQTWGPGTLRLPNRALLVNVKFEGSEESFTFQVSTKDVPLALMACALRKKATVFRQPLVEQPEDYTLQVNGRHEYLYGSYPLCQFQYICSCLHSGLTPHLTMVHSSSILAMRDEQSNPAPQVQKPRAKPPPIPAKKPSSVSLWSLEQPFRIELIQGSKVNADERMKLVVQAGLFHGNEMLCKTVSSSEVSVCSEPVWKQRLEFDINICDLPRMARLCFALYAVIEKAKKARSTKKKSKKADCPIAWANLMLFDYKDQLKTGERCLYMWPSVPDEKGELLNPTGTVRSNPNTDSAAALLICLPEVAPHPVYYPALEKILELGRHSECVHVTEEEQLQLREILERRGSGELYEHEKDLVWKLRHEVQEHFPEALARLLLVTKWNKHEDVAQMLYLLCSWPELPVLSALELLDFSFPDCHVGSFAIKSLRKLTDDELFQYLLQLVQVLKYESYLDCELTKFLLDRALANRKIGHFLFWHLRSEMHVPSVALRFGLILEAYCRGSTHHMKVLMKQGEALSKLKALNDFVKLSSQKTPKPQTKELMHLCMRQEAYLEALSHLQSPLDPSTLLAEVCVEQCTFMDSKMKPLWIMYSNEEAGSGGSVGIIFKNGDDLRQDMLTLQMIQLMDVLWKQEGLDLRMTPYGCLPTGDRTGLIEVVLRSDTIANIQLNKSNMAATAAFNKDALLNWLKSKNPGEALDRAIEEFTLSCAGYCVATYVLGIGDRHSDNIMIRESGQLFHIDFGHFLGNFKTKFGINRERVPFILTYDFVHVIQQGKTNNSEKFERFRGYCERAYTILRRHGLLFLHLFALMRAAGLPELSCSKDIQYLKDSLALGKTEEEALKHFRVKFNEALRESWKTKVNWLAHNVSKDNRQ
T2 sequence (P27986 whole entry partner): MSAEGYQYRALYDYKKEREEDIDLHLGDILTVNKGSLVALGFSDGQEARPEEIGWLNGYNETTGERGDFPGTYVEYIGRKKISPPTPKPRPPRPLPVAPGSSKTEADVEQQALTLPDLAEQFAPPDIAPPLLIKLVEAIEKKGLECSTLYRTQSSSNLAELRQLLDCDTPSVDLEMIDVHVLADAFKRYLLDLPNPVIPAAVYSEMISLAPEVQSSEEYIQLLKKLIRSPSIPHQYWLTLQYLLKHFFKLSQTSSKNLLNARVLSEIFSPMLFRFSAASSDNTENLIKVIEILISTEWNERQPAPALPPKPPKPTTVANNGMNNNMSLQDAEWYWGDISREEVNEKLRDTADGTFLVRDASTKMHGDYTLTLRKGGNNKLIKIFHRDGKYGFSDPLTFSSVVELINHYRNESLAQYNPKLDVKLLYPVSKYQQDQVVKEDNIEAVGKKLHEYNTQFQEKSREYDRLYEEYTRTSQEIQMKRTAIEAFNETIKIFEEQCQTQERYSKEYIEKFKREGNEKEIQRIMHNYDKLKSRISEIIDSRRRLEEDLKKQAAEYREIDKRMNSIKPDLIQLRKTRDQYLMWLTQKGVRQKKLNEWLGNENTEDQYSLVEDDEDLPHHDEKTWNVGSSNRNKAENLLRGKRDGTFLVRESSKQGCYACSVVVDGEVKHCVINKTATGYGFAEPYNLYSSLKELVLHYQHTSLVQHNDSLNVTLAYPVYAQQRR
The assay can be described thus: HTRF PI3K biochemical assay, delta isoform. Particulars: form screened (neutral or TFA salt) given, read-out: PI3Kdelta IC50.

T1 sequence (P42336 whole entry): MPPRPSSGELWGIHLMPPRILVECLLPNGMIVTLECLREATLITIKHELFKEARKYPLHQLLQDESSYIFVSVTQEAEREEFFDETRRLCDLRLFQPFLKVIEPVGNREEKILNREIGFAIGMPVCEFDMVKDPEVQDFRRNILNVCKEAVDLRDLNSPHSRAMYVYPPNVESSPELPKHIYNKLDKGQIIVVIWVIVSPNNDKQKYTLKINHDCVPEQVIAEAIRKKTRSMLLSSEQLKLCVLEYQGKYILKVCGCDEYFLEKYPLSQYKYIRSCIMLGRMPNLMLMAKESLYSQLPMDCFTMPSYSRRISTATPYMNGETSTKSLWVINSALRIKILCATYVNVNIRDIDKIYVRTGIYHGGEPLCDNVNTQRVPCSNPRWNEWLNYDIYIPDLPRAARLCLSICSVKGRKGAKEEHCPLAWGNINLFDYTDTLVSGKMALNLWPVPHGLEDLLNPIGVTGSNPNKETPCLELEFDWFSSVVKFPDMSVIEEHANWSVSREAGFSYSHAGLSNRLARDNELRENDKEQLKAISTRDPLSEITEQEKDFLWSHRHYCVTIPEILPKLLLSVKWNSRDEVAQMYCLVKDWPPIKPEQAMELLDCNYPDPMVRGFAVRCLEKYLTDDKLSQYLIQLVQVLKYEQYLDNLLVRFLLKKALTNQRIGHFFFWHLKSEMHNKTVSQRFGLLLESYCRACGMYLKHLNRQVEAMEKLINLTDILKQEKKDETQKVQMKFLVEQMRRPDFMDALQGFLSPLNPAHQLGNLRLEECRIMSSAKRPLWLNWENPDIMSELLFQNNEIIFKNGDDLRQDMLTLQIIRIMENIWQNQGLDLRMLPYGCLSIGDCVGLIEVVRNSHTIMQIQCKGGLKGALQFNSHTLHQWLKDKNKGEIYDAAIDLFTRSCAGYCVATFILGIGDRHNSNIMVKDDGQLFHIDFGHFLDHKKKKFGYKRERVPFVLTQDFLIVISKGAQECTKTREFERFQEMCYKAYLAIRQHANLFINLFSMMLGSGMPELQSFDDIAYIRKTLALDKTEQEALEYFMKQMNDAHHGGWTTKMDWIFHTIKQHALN
T1 sequence (P27986 whole entry partner): as the sequence (P27986 whole entry partner) above

As to `CCn1c(-c2cnc(C)nc2)nc2c(N[C@H]3CCN(C(=O)NCC4CCS(=O)(=O)C4)C3)ncnc21` (mixture of isomers) [Compound 12-20, (3S)-N-[((S and R)-1,1-dioxidotetrahydrothiophen-3-yl)methyl]-3-{[9-ethyl-8-(2-methylpyrimidin-5-yl)-9H-purin-6-yl]amino}pyrrolidine-1-carboxamide], on PI3K-alpha, the “Selectivity versus PI3Kalpha” value is listed as >10. Further, the IC50 on PI3K-delta amounted to 9.4 nM.

Take `CCn1c(-c2cnc(C)nc2)nc2c(N[C@H]3CCN(C(=O)N4CCC(C)(C)C4)C3)ncnc21` [Compound 12-11, N-{(3S)-1-[(3,3-dimethylpyrrolidin-1-yl)carbonyl]pyrrolidin-3-yl}-9-ethyl-8-(2-methylpyrimidin-5-yl)-9H-purin-6-amine]: at PI3K-alpha, the “Selectivity versus PI3Kalpha” value is >10. The IC50 on PI3K-delta is < 1 nM.

For `CCn1c(C(=O)Nc2ccccc2)nc2c(N[C@H]3CCN(C(=O)C4CC4)C3)ncnc21` [Compound 6-18, 6-{[(3S)-1-(cyclopropylcarbonyl)pyrrolidin-3-yl]amino}-9-ethyl-N-phenyl-9H-purine-8-carboxamide], the “Selectivity versus PI3Kalpha” value at PI3K-alpha is recorded as >10. Besides, on PI3K-delta, the IC50 is 15 nM.

Consider `CCn1c(-c2cnc(C)nc2)nc2c(N[C@H]3C[C@H](C(=O)NCCO)N(c4ccccn4)C3)ncnc21` [Compound 15-12, (4S)-4-{[9-ethyl-8-(2-methylpyrimidin-5-yl)-9H-purin-6-yl]amino}-N-(2-hydroxyethyl)-1-pyridin-2-yl-D-prolinamide], for which, at PI3K-alpha, the “Selectivity versus PI3Kalpha” value is on record as >10. Besides, the IC50 on PI3K-delta turned out to be 4.6 nM.

As to `CCn1c(C(F)F)nc2c(N[C@H]3CCN(c4ccccn4)C3)ncnc21` [Compound 7-26, 8-(difluoromethyl)-9-ethyl-N-[(3S)-1-pyridin-2-ylpyrrolidin-3-yl]-9H-purin-6-amine], the “Selectivity versus PI3Kalpha” value at PI3K-alpha is recorded as >10. In addition, the IC50 at PI3K-delta came to 28 nM.

In the case of `CCc1ccnc(N2CC[C@H](Nc3ncnc4c3nc(-c3cnc(C)nc3)n4CC)C2)c1` [Compound 4-6, 9-ethyl-N-[(3S)-1-(4-ethylpyridin-2-yl)pyrrolidin-3-yl]-8-(2-methylpyrimidin-5-yl)-9H-purin-6-amine], the “Selectivity versus PI3Kalpha” value at PI3K-alpha is on record as >10. Besides, at PI3K-delta, the IC50 worked out at 4.7 nM.

Regarding `CCn1c(-c2ccc(C(F)(F)F)nc2)nc2c(N[C@H]3CCN(C(=O)C4CCCO4)C3)ncnc21` (single isomer, unassigned) [Compound 2-103, 9-ethyl-N-{(3S)-1-[(2S or 2R)-tetrahydrofuran-2-ylcarbonyl]pyrrolidin-3-yl}-8-[6-(trifluoromethyl)pyridin-3-yl]-9H-purin-6-amine], on PI3K-alpha, the “Selectivity versus PI3Kalpha” value is on record as >10. On PI3K-delta, the IC50 is 1.8 nM.

As for `CCC(=O)N1CC[C@H](Nc2ncnc3c2nc(C(F)(F)F)n3CC)C1` [Compound 7-11, 9-ethyl-N-[(3S)-1-propanoylpyrrolidin-3-yl]-8-(trifluoromethyl)-9H-purin-6-amine], the “Selectivity versus PI3Kalpha” value at PI3K-alpha is >10. For the same compound, the IC50 on PI3K-delta came out at 14 nM.

As for `CCn1c(-c2cnc(C)nc2)nc2c(N[C@H]3CCN(C(=O)C4CC45CCCC5)C3)ncnc21` (single isomer, unassigned) [Compound 2-35, 9-ethyl-8-(2-methylpyrimidin-5-yl)-N-[(3S)-1-((R or S)-spiro[2.4]hept-1-ylcarbonyl)pyrrolidin-3-yl]-9H-purin-6-amine], at PI3K-alpha, the “Selectivity versus PI3Kalpha” value is reported as >10. Moreover, the IC50 on PI3K-delta was < 1 nM.

For the compound `CCC(=O)N1CC[C@H](Nc2ncnc3c2nc(-c2ccc4[nH]ccc4c2)n3C)C1` [Compound 3-8, (S)-1-(3-((8-(1H-indol-5-yl)-9-methyl-9H-purin-6-yl)amino)pyrrolidin-1-yl)propan-1-one], the “Selectivity versus PI3Kalpha” value at PI3K-alpha is >10. At PI3K-delta, the IC50 was 14 nM.

With `CCCN1CC(Nc2ncnc3c2nc(-c2cnc(C)nc2)n3CC)CC1=O` (racemic) [Compound 14-4, 4(S and R)-{[9-ethyl-8-(2-methylpyrimidin-5-yl)-9H-purin-6-yl]amino}-1-propylpyrrolidin-2-one], at PI3K-alpha, the “Selectivity versus PI3Kalpha” value is on record as >10. At PI3K-delta, the IC50 amounted to 24 nM.

As for `CCn1c(-c2cnc(C)nc2)nc2c(N[C@H]3CCN(C(=O)C4(C#N)CCCC4)C3)ncnc21` [Compound 2-62, 1-{[(3S)-3-{[9-ethyl-8-(2-methylpyrimidin-5-yl)-9H-purin-6-yl]amino}pyrrolidin-1-yl]carbonyl}cyclopentanecarbo-nitrile], the “Selectivity versus PI3Kalpha” value at PI3K-alpha is given as >10. For the same compound, the IC50 on PI3K-delta is 6 nM.

As to `CCn1c(-c2cnc(C)nc2)nc2c(N[C@H]3CCN(C(=O)N4CC[C@@H](OC)C4)C3)ncnc21` [Compound 12-15], the “Selectivity versus PI3Kalpha” value on PI3K-alpha is reported as >10. For the same compound, the IC50 at PI3K-delta is 8.2 nM.

As to `CCn1c(-c2cnc(C)nc2)nc2c(N[C@H]3CCCN(C(=O)OC(C)(C)C)C3)ncnc21` [Compound 1-16, tert-butyl (3S)-3-{[9-ethyl-8-(2-methylpyrimidin-5-yl)-9H-purin-6-yl]amino}piperidine-1-carboxylate], the “Selectivity versus PI3Kalpha” value on PI3K-alpha is >10. In addition, the IC50 at PI3K-delta was 49 nM.

For the compound `CCn1c(C(F)F)nc2c(N[C@H]3CCN(C(=O)N4CCC4)C3)ncnc21` [Compound 7-27, N-[(3S)-1-(azetidin-1-ylcarbonyl)pyrrolidin-3-yl]-8-(difluoromethyl)-9-ethyl-9H-purin-6-amine], the “Selectivity versus PI3Kalpha” value on PI3K-alpha is >10. In addition, the IC50 at PI3K-delta turned out to be 5.2 nM.

As to `CCn1c(-c2cnc(C)nc2)nc2c(N[C@H]3CCN(c4ccc(C#N)cn4)C3)ncnc21` [Compound 4-11, 6-[(3S)-3-{[9-ethyl-8-(2-methylpyrimidin-5-yl)-9H-purin-6-yl]amino}pyrrolidin-1-yl]pyridine-3-carbonitrile], the “Selectivity versus PI3Kalpha” value on PI3K-alpha is given as >10. For the same compound, at PI3K-delta, the IC50 was 12 nM.

In the case of `CCn1c(-c2cnc(C)nc2)nc2c(NC3CCN(C(=O)c4cnco4)C3)ncnc21` (stereo in doubt) [Compound 2-76, (R)-(3-((9-ethyl-8-(2-methylpyrimidin-5-yl)-9H-purin-6-yl)amino)pyrrolidin-1-yl)(oxazol-5-yl)methanone], the “Selectivity versus PI3Kalpha” value at PI3K-alpha was >10. The IC50 at PI3K-delta was found to be 3.1 nM.

Take `CCn1c(C(=O)N2CCCC2)nc2c(N[C@H]3CCN(C(=O)C4CC4)C3)ncnc21` [Compound 6-8, N-[(3S)-1-(cyclopropylcarbonyl)pyrrolidin-3-yl]-9-ethyl-8-(pyrrolidin-1-ylcarbonyl)-9H-purin-6-amine]: the “Selectivity versus PI3Kalpha” value at PI3K-alpha is recorded as >10. The IC50 on PI3K-delta worked out at 72 nM.

In the case of `CCn1c(-c2cnc(C)nc2)nc2c(N[C@H]3C[C@H](C(=O)NC(C)C)N(C(=O)C4CC4)C3)ncnc21` [Compound 15-4, (4S)-1-(cyclopropylcarbonyl)-4-{[9-ethyl-8-(2-methylpyrimidin-5-yl)-9H-purin-6-yl]amino}-N-(1-methylethyl)-D-prolinamide], at PI3K-alpha, the “Selectivity versus PI3Kalpha” value is >10. Also, the IC50 at PI3K-delta was 15 nM.

For the compound `CCn1c(-c2cnc(C)nc2)nc2c(NC3CN(C(=O)C4CC4)CC3F)ncnc21` (single isomer, unassigned) [Compound 3-21, N-[(3R,4R or 3S,4S)-1-(cyclopropylcarbonyl)-4-fluoropyrrolidin-3-yl]-9-ethyl-8-(2-methylpyrimidin-5-yl)-9H-purin-6-amine], at PI3K-alpha, the “Selectivity versus PI3Kalpha” value was >10. For the same compound, at PI3K-delta, the IC50 was determined as 3.4 nM.

On to `CCN(c1ncnc2c1nc(-c1cnc(C)nc1)n2CC)[C@H]1CCN(C(=O)C2CC2)C1` [Compound 3-28, N-[(3S)-1-(cyclopropylcarbonyl)pyrrolidin-3-yl]-N,9-diethyl-8-(2-methylpyrimidin-5-yl)-9H-purin-6-amine], for which the “Selectivity versus PI3Kalpha” value at PI3K-alpha was >10. The IC50 on PI3K-delta was determined as 6.7 nM.

On to `CCn1c(-c2cnc(C)nc2)nc2c(N[C@H]3CCN(C(=O)c4ocnc4C)C3)ncnc21` [Compound 2-74, 9-ethyl-N-{(3S)-1-[(4-methyl-1,3-oxazol-5-yl)carbonyl]pyrrolidin-3-yl}-8-(2-methylpyrimidin-5-yl)-9H-purin-6-amine], for which, on PI3K-alpha, the “Selectivity versus PI3Kalpha” value is on record as >10. Moreover, at PI3K-delta, the IC50 was determined as 3.1 nM.

Take `CCn1c(-c2cnc(C)nc2)nc2c(N[C@H]3CCN(C(=O)C45CC(C4)C5)C3)ncnc21` [Compound 2-77, N-[(3S)-1-(bicyclo[1.1.1]pent-1-ylcarbonyl)pyrrolidin-3-yl]-9-ethyl-8-(2-methylpyrimidin-5-yl)-9H-purin-6-amine]: the “Selectivity versus PI3Kalpha” value at PI3K-alpha is on record as >10. Also, on PI3K-delta, the IC50 worked out at 2.1 nM.

With `Cn1c(-c2cnc(C(C)(C)C)s2)nc2c(N[C@H]3CCN(C(=O)OC(C)(C)C)C3)ncnc21` [Compound 1-9, (S)-tert-butyl 3-((8-(2-(tert-butyl)thiazol-5-yl)-9-methyl-9H-purin-6-yl)amino)pyrrolidine-1-carboxylate], at PI3K-alpha, the “Selectivity versus PI3Kalpha” value is >10. Further, on PI3K-delta, the IC50 is < 1 nM.

As for `CCn1c(-c2cnc(C)nc2)nc2c(N[C@H]3CCN(C(=O)C4CC4(F)F)C3)ncnc21` (mixture of isomers) [Compound 2-55, N-{(3S)-1-[((R and S)-2,2-difluorocyclopropyl)carbonyl]pyrrolidin-3-yl}-9-ethyl-8-(2-methylpyrimidin-5-yl)-9H-purin-6-amine], at PI3K-alpha, the “Selectivity versus PI3Kalpha” value was >10. Further, on PI3K-delta, the IC50 came to 1.5 nM.

As for `CCn1c(-c2cnc(C)nc2)nc2c(N[C@H]3C[C@H](C(=O)NCCO)N(C(=O)C4CC4)C3)ncnc21` [Compound 15-7, (4S)-1-(cyclopropylcarbonyl)-4-{[9-ethyl-8-(2-methylpyrimidin-5-yl)-9H-purin-6-yl]amino}-N-(2-hydroxyethyl)-D-prolinamide], the “Selectivity versus PI3Kalpha” value at PI3K-alpha is listed as >10. Also, the IC50 on PI3K-delta came out at 5.8 nM.

As for `CCn1c(C(F)F)nc2c(N[C@H]3CCN(C(=O)C4CC45CCCC5)C3)ncnc21` (single isomer, unassigned) [Compound 7-21, (S or R)-8-(difluoromethyl)-9-ethyl-N-[(3S)-1-(spiro[2.4]hept-1-ylcarbonyl)pyrrolidin-3-yl]-9H-purin-6-amine], the “Selectivity versus PI3Kalpha” value at PI3K-alpha is reported as >10. The IC50 on PI3K-delta was 2.4 nM.

The values are drawn from patent publication US9938281B2 (Merck Sharp & Dohme Corp., priority 2012, dated 2018).
